# Test results published in patent US20260226037A1, “MICROTUBULE TARGETING AGENTS” (ARIEL SCIENTIFIC INNOVATIONS LTD., priority 2022, published 2026).
# What was measured:
# MM1.S cells = experiment: XTT cytotoxicity, MM1.S; format: cell-based; conditions: Homo sapiens
# Method in brief: (§1)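 Readout: XTT reduction, used as the measure of cytotoxic effect on cultured tumor cells.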
# [1] = test system: colchicine binding site on tubulin protein; experiment: EBI competition assay, RPMI-8226 cells; format: cell-based; conditions: RPMI-8226 living cells
# NALM6 cells = experiment: XTT cytotoxicity, NALM6; format: cell-based; conditions: Homo sapiens, NALM-6
# RPMI 8226 cells = experiment: XTT cytotoxicity, RPMI 8226; format: cell-based; conditions: Homo sapiens, RPMI-8226
# Method in brief: as §1
# [2] = Xenograft murine myeloma model, body weight and toxicity signs; format: in vivo; conditions: during the experiment
# Experimental: In vivo anti-cancer efficacy of the molecules was evaluated in a xenograft murine myeloma model. Male SCID mice (6-8 weeks old) were maintained in accordance with Institutional Animal Care Use Committee guidelines. Mice were housed in the Animal Research Facility of Ariel University and experiments were performed in accordance with approved protocols. During the experiment, RPMI8226 myeloma cells in exponential growth were harvested from culture, washed three times with sterile PBS, counted and resuspended in sterile PBS (1.5×10^7cells mouse/0.1 ml PBS) and subcutaneously injected on the right flank of male C.B-17/IcrHsd-Prkdc-scid, […] mice. After two weeks of cells injection, when tumors reached a size between 30-60 mm3, mice were assigned into different groups (n=3-5) and started receiving treatment. Body weights were determined twice weekly along with tumor volume {V=[length×(width)2]/2}measurements using electronical caliper. Mice were sacrificed when mean tumor volume of vehicle treated group reached 1500 mm3, or mice appeared moribund to prevent unnecessary morbidity.
# The weight of the tumors was measured at the end of the experiment and expressed as mean tumor weight per group. Body weight is expressed as mean body mice weight per group.
# MES-SA/DX5 cells = experiment: XTT cytotoxicity, MES-SA/DX5; format: cell-based
# Method in brief: as §1
# RPMI8226 myeloma cells = experiment: Xenograft murine myeloma model, antitumor efficacy; format: in vivo, mice
# Experimental: In vivo anti-cancer efficacy of the molecules was evaluated in a xenograft murine myeloma model. Male SCID mice (6-8 weeks old) were maintained in accordance with Institutional Animal Care Use Committee guidelines. Mice were housed in the Animal Research Facility of Ariel University and experiments were performed in accordance with approved protocols. […] Mice were sacrificed when mean tumor volume of vehicle treated group reached 1500 mm3, or mice appeared moribund to prevent unnecessary morbidity. Mean tumor volume represents the average of tumor volume in each treatment group during the experiment. The weight of the tumors was measured at the end of the experiment and expressed as mean tumor weight per group. Body weight is expressed as mean body mice weight per group. The individual relative tumor volume (RTV) was defined as Vx/V1, where Vx is the mean tumor volume in mm3 at a given time and V1 at the start of treatment. Relative tumor volume is determined by calculating RTV (%) (mean RTV of treated group)/(mean RTV of control group)). Relative tumor volume inhibition is determined by calculating RTVI (%) (1-RTV %)
# MCF7-VP cells = experiment: XTT cytotoxicity, MCF7-VP; format: cell-based
# Method in brief: as §1
# RPMI8226 cells = experiment: Cell cycle distribution by flow cytometry; format: cell-based; conditions: 6 hours; IC50, IC50x2.5 and IC50x5 concentrations
# Experimental: Cell cycle arrest is a shared consequence of MTAs treatment. The effects of cell cycle distribution were determined in RPMI8226 cells treated for 6 and 18 hours with a range of concentrations of the molecules. The cells were stained with propidium iodide and cell cycle distribution was measured using a cytoFLEX flow cytometer.
# MM1.R cells = experiment: XTT cytotoxicity, MM1.R; format: cell-based
# Method in brief: as §1
# RPMI-LR5 cells = experiment: XTT cytotoxicity, RPMI-LR5; format: cell-based
# Method in brief: as §1
# MES-SA cells = experiment: XTT cytotoxicity, MES-SA; format: cell-based; conditions: Homo sapiens, poorly differentiated uterine sarcoma, non-resistant
# Method in brief: as §1
# RPMI-DOX40 cells = experiment: XTT cytotoxicity, RPMI-DOX40; format: cell-based
# Method in brief: as §1
# MCF7 cells = experiment: XTT cytotoxicity, MCF7; format: cell-based; conditions: Homo sapiens; MCF7, breast adenocarcinoma, non-resistant
# Method in brief: as §1
# N6/ADR cells = experiment: XTT cytotoxicity, N6/ADR; format: cell-based
# RPMI-MR20 cells = experiment: XTT cytotoxicity, RPMI-MR20; format: cell-based
# Method in brief: as §1
compound,measurement,setting,value
"Cc1c(C(=O)OCCCCN)oc2c1C(=O)CC(c1ncco1)C2.Cl (stereo not drawn) [SMS228, 4-((3-methyl-6-(oxazol-2-yl)-4-oxo-4,5,6,7-tetrahydrobenzofuran-2-carbonyl)oxy)butan-1-aminium chloride]",IC50,MM1.S cells,4430 nM
same,prevention of covalent binding of EBI to the colchicine binding site,[1],did not prevent the covalent binding of EBI to the colchicine binding site
same,IC50,NALM6 cells,350 nM
same,IC50,RPMI 8226 cells,1530 nM
same,body weight and other signs of potential toxicity,[2]; 30 mg/kg subcutaneously,No significant changes in body weight or other signs of potential toxicity
same,body weight and other signs of potential toxicity,[2]; intraperitoneally,No significant changes in body weight or other signs of potential toxicity
same,IC50,"MES-SA/DX5 cells; Homo sapiens, MES-SA/DX5, uterine sarcoma, P-gp overexpression",7410 nM
same,IC50 ratio between resistant and non-resistant cells,MES-SA/DX5 cells; MES-SA/DX5 / MES-SA,0.778
same,Relative tumor volume inhibition,"RPMI8226 myeloma cells; 15 mg/kg intraperitoneally, after 21 days",20%
same,Relative tumor volume inhibition,"RPMI8226 myeloma cells; 30 mg/kg intraperitoneally, after 21 days",23%
same,growth inhibition rate (tumor weight at end of experiment),RPMI8226 myeloma cells; 30 mg/kg subcutaneously,70%
same,Relative tumor volume inhibition,"RPMI8226 myeloma cells; 30 mg/kg subcutaneously, after 19 days",45%
same,tumor volume lower in the treated group vs vehicle,"RPMI8226 myeloma cells; 30 mg/kg subcutaneously, beginning of the experiment",56%
same,tumor volume lower in the treated group vs vehicle,"RPMI8226 myeloma cells; 30 mg/kg subcutaneously, day 21",76%
same,Relative tumor volume inhibition,"RPMI8226 myeloma cells; 50 mg/kg intraperitoneally, after 21 days",42%
same,decrease of tumor volume as compared to vehicle at the same day,"RPMI8226 myeloma cells; 50 mg/kg intraperitoneally, day 7 to 19",30%
same,decrease of tumor volume as compared to vehicle at the same day,"RPMI8226 myeloma cells; 50 mg/kg intraperitoneally, day 21",40%
same,growth inhibition rate (tumor weight at end of experiment),RPMI8226 myeloma cells; intraperitoneally,44%
same,IC50,"MCF7-VP cells; Homo sapiens, MCF7-VP, breast adenocarcinoma, MRP overexpression",12300 nM
same,IC50 ratio between resistant and non-resistant cells,MCF7-VP cells; MCF7-VP / MCF7,1.400
same,cell cycle arrest,RPMI8226 cells,cell cycle arrest in G2M phase
same,IC50 ratio between resistant and non-resistant cells,MM1.R cells; MM1.R / MM1.S,>0.406
same,IC50,MM1.R cells; MM.1R,> 1800 nM
same,IC50,RPMI-LR5 cells,1300 nM
same,IC50 ratio between resistant and non-resistant cells,RPMI-LR5 cells; RPMI-LR5 / RPMI 8226,0.847
same,IC50,MES-SA cells,9520 nM
same,IC50,RPMI-DOX40 cells,1310 nM
same,IC50 ratio between resistant and non-resistant cells,RPMI-DOX40 cells; RPMI-DOX40 / RPMI 8226,0.853
same,IC50,MCF7 cells,8810 nM
same,IC50,N6/ADR cells,360 nM
same,IC50 ratio between resistant and non-resistant cells,N6/ADR cells; N6/ADR / NALM6,1.029
same,IC50,RPMI-MR20 cells,2230 nM
same,IC50 ratio between resistant and non-resistant cells,RPMI-MR20 cells; RPMI-MR20 / RPMI 8226,>1.454
